Like-named read-outs stand apart in the source and are kept apart here.
Tests used:
[1] = molecular target: T1, HDAC7 (Homo sapiens, UniProt Q8WUI4); assay: HDAC biochemical activity measurement (fluorescent substrate deacetylation);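 note: fluorogenic deacetylation assay using acetyl-lysine substrate at 20 µM, enzyme and compound incubated 30 min at 37 °C, then developer added, fluorescence read at 360/460 nm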; conditions: HDAC7; 37° C. 30 minutes
T1 sequence (Q8WUI4 1-952): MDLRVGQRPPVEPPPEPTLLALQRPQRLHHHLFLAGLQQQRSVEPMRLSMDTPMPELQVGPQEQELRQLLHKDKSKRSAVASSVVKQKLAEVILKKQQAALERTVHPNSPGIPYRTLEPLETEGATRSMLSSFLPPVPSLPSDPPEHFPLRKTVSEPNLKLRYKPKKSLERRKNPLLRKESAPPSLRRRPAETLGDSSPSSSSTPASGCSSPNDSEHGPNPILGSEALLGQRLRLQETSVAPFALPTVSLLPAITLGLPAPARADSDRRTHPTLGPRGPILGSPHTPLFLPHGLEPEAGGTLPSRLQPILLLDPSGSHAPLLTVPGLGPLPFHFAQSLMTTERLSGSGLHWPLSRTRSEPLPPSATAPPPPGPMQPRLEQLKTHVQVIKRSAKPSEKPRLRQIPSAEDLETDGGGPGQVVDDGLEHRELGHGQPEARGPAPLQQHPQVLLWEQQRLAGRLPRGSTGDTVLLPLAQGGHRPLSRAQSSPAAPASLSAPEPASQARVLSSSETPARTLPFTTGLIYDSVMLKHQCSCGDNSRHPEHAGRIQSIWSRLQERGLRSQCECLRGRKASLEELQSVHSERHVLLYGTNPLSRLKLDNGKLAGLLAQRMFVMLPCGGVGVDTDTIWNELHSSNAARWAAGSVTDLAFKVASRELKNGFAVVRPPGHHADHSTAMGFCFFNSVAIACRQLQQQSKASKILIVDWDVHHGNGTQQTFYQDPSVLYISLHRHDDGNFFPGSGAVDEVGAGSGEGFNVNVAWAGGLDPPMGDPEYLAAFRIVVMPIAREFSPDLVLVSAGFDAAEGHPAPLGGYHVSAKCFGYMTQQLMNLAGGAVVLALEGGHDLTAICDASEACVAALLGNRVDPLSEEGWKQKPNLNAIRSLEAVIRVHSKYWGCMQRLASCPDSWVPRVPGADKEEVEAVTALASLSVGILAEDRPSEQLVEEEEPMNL

[2] = system: Hela (human cervical cancer cells); assay: MTT cancer cell growth inhibition; assay type: cell-based; conditions: Hela cells, MTT, 72 hours incubation, read-out: GI50 Hela
In short: (§1)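 Read-out was formazan absorbance at 570 nm after a 4 h MTT step and DMSO solubilisation, converted to cell viability and fitted for GI50. Beforehand, cells (1500/well, overnight attachment) were treated with compound at 10^−5 to 10^−10 M for 72 h at 37° C.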

[3] = system: Huh-7 (human hepatoma cells); assay: MTT cancer cell growth inhibition; assay type: cell-based; conditions: Homo sapiens, Huh-7, 72 h, MTT, 72 hours incubation, Huh-7 cells; read-out: GI50 Huh-7
In short: as §1

[4] = system: PANC-1 (Pac-1, human pancreatic cancer cells); assay: MTT cancer cell growth inhibition; assay type: cell-based; conditions: Homo sapiens, PANC-1, 72 h, PANC-1 cells, MTT, 72 hours incubation; read-out: GI50 PAN
In short: as §1

[5] = system: lncap (prostate cancer cells); assay: MTT cancer cell growth inhibition; assay type: cell-based; conditions: Homo sapiens, LNCaP, 72 h, lncap cells, MTT, 72 hours incubation; read-out: GI50 lnca
In short: as §1

[6] = system: DU145 (human prostate cancer cells); assay: MTT cancer cell growth inhibition; assay type: cell-based; conditions: Homo sapiens, DU-145, 72 h, DU145 cells, MTT, 72 hours incubation; read-out: GI50 Du1
In short: as §1

[7] = system: HCC827 (human non-small cell lung cancer cells); assay: MTT cancer cell growth inhibition; assay type: cell-based; conditions: MTT, 72 hours incubation, HCC827 cells, read-out: GI50 HCC827
In short: as §1

[8] = system: N-87 (human gastric cancer cells); assay: MTT cancer cell growth inhibition; assay type: cell-based; conditions: Homo sapiens, 72 h, MTT, 72 hours incubation, N-87 cells; read-out: GI50 N-87
In short: as §1

[9] = system: A549 (human lung cancer cells); assay: MTT cancer cell growth inhibition; assay type: cell-based; conditions: A549 cells, MTT, 72 hours incubation, read-out: GI50 A54
In short: as §1

[10] = system: MDA-MB-231 (breast cancer cells); assay: MTT cancer cell growth inhibition; assay type: cell-based; conditions: Homo sapiens, MDA-MB-231, 72 h, read-out: GI50 MDA-MB-231, MTT, 72 hours incubation, MDA-MB-231 cells
In short: as §1

[11] = system: U937 (human leukemia cells); assay: MTT cancer cell growth inhibition; assay type: cell-based; conditions: U937 cells, MTT, 72 hours incubation, read-out: GI50 U93
In short: as §1

[12] = system: BGC-823 (human gastric cancer cells); assay: MTT cancer cell growth inhibition; assay type: cell-based; conditions: Homo sapiens, BGC-823, 72 h, BGC-823 cells, MTT, 72 hours incubation; read-out: GI50 BG
In short: as §1

[13] = system: KBM5-T315I (human chronic myelogenous leukemia); assay: MTT cancer cell growth inhibition; assay type: cell-based; conditions: MTT, 72 hours incubation, KBM5-T315I cells, read-out: GI50 KBM5-T315I
In short: as §1

[14] = system: H1975 (non-small cell lung adenocarcinoma); assay: MTT cancer cell growth inhibition; assay type: cell-based; conditions: MTT, 72 hours incubation, H1975 cells, read-out: GI50 H1975
In short: as §1

[15] = system: KBM-5 (human chronic myelogenous leukemia); assay: MTT cancer cell growth inhibition; assay type: cell-based; conditions: Homo sapiens, KBM5, 72 h, MTT, 72 hours incubation, KBM-5 cells; read-out: GI50 KBM-5
In short: as §1

[16] = system: K562 (human leukemia cells); assay: MTT cancer cell growth inhibition; assay type: cell-based; conditions: Homo sapiens, K562, 72 h, MTT, 72 hours incubation, K562 cells; read-out: GI50 K562
In short: as §1

[17] = system: SGC-7901 (human gastric cancer cells); assay: MTT cancer cell growth inhibition; assay type: cell-based; conditions: Homo sapiens, SGC-7901, 72 h, MTT, 72 hours incubation, SGC-7901 cells; read-out: GI50 SGC-7901
In short: as §1

[18] = system: Bel-7402 (human hepatoma cells); assay: MTT cancer cell growth inhibition; assay type: cell-based; conditions: MTT, 72 hours incubation, Bel-7402 cells, read-out: GI50 Bel-7402
In short: as §1

[19] = system: HT1080 (human fibrosarcoma cells); assay: MTT cancer cell growth inhibition; assay type: cell-based; conditions: HT1080 cells, MTT, 72 hours incubation, read-out: GI50 HT1
In short: as §1

[20] = system: MCF-7 (human breast cancer cells); assay: MTT cancer cell growth inhibition; assay type: cell-based; conditions: MCF-7 cells, 72 hours incubation, read-out: GI50 MCF
In short: as §1

[21] = system: MOLT-4 (human acute lymphoblastic leukemia cells); assay: MTT cancer cell growth inhibition; assay type: cell-based; conditions: Homo sapiens, MOLT-4, 72 h, MOLT-4 cells, MTT, 72 hours incubation; read-out: GI50 Mol
In short: as §1

Structure (SMILES)	IC50 HDAC7 [1]	GI50 [3] [nM]	GI50 [4] [nM]	GI50 [5] [nM]	GI50 [6] [nM]	GI50 ([7]; Homo sapiens, HCC827, 72 h) [nM]	GI50 [8] [nM]	GI50 ([9]; Homo sapiens, A549, 72 h) [nM]	GI50 [10] [nM]	GI50 [12] [nM]	GI50 ([13]; Homo sapiens, 72 h) [nM]	GI50 ([14]; Homo sapiens, NCI-H1975, 72 h) [nM]	GI50 [15] [nM]	GI50 [16] [nM]	GI50 [17] [nM]	GI50 [21] [nM]	GI50 ([11]; Homo sapiens, U-937, 72 h) [nM]	GI50 ([20]; Homo sapiens, MCF7, 72 h) [nM]	GI50 ([2]; Homo sapiens, HeLa, 72 h) [nM]	GI50 ([18]; Homo sapiens, Bel-7402, 72 h) [nM]	other results
C/C=C1\NC(=O)c2nc(ccc2SC)CNC(=O)C[C@@H](/C=C/CCSC(C)=O)OC(=O)[C@H](C)NC1=O [Compound 183]	no activity	47	50	60	30	46	37	70	49	60	65	41	51	25	48	60	–	–	–	–	GI50 [2]: 110 nM; GI50 [11]: 20 nM; GI50 [18]: 25 nM; GI50 [19]: 50 nM; GI50 [20]: 40 nM
C/C=C1\NC(=O)c2ccc(SC)c(n2)CNC(=O)C[C@@H](/C=C/CCSC(C)=O)OC(=O)[C@H](C)NC1=O [Compound 185]	no activity	71	30	80	30	–	26	–	71	30	–	–	28	36	44	50	50	60	–	–	GI50 [2]: 50 nM; GI50 [7]: 82 nM; GI50 [9]: 10 nM; GI50 [13]: 13 nM; GI50 [14]: 12 nM; GI50 [18]: 91 nM; GI50 [19]: 50 nM
C/C=C1\NC(=O)c2nc(ccc2SC)CNC(=O)C[C@@H](/C=C/CCSC(C)=O)OC(=O)[C@H](Cc2ccccc2)NC1=O [Compound 186]	no activity	16	50	30	100	89	28	30	39	40	21	63	36	39	43	30	40	50	70	52	GI50 ([19]; Homo sapiens, HT-1080, 72 h): 20 nM
C/C=C1\NC(=O)c2cc(SC)cc(n2)CNC(=O)C[C@@H](/C=C/CCSC(C)=O)OC(=O)[C@H](Cc2ccccc2)NC1=O [Compound 187]	no activity	85	60	60	50	75	42	60	11	60	41	23	21	45	38	30	60	20	40	43	GI50 ([19]; Homo sapiens, HT-1080, 72 h): 20 nM
C/C=C1\NC(=O)c2ccc(SC)c(n2)CNC(=O)C[C@@H](/C=C/CCSC(C)=O)OC(=O)[C@H](Cc2ccccc2)NC1=O [Compound 188]	no activity	79	50	60	30	29	28	20	23	30	36	53	18	36	71	30	40	30	50	42	GI50 ([19]; Homo sapiens, HT-1080, 72 h): 80 nM
C/C=C1\NC(=O)c2nc(ccc2SC)CNC(=O)C[C@@H](/C=C/CCSC(=O)CCCCCCC)OC(=O)[C@H](Cc2ccccc2)NC1=O [Compound 189]	no activity	21	80	50	30	41	45	30	38	10	43	41	45	32	23	50	40	30	40	36	GI50 ([19]; Homo sapiens, HT-1080, 72 h): 110 nM
C/C=C1\NC(=O)c2cc(SC)cc(n2)CNC(=O)C[C@@H](/C=C/CCSC(=O)CCCCCCC)OC(=O)[C@H](Cc2ccccc2)NC1=O [Compound 190]	no activity	75	60	30	20	56	48	20	67	50	17	23	57	63	86	70	50	30	60	28	GI50 ([19]; Homo sapiens, HT-1080, 72 h): 20 nM

Source: patent US10065990B2, “Cyclic peptide compound, and preparation method, pharmaceutical composition and use thereof” (HANGZHOU GUANYU BIO-MEDICAL CO., LTD, priority 2013, dated 2018)
